Each block holds one compound with its values, some of them ahead of it.
What was measured:
ITK = target: T1, ITK (Homo sapiens, UniProt Q08881); experiment: Inhibitory activity against ITK (ADP-Glo + ITK Kinase enzyme system kit); selectivity BTK vs. ITK; format: biochemical; conditions: for IC50: ITK enzyme 0.4 ng/uL, ATP 25 uM, luminescence, duplicate; for Selectivity (based on IC50): selectivity for the inhibitory activity of BTK vs. ITK, Equation 1
T1 construct: purchased Promega Corporation
T1 sequence (Q08881 1-620): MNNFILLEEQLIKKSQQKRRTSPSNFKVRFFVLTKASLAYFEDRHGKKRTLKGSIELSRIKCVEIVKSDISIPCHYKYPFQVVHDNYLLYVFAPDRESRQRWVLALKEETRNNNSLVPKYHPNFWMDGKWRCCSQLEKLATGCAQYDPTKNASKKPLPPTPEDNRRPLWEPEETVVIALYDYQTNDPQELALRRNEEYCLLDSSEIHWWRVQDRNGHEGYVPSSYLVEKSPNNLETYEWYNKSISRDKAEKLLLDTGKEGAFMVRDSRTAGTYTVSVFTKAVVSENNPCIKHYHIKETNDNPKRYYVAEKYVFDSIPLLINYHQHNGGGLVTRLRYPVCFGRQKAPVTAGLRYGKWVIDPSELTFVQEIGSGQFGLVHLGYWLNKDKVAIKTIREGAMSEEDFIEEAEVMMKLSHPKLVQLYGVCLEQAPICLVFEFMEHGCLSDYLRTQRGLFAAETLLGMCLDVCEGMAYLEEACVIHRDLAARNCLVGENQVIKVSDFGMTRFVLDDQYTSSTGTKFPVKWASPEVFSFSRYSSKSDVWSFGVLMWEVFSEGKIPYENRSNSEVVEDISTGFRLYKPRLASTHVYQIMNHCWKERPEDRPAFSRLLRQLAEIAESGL

BTK = BTK (Homo sapiens, UniProt Q06187); experiment: Inhibitory activity against BTK (ADP-Glo + BTK Kinase enzyme system kit)
Chain of BTK (Q06187 whole entry): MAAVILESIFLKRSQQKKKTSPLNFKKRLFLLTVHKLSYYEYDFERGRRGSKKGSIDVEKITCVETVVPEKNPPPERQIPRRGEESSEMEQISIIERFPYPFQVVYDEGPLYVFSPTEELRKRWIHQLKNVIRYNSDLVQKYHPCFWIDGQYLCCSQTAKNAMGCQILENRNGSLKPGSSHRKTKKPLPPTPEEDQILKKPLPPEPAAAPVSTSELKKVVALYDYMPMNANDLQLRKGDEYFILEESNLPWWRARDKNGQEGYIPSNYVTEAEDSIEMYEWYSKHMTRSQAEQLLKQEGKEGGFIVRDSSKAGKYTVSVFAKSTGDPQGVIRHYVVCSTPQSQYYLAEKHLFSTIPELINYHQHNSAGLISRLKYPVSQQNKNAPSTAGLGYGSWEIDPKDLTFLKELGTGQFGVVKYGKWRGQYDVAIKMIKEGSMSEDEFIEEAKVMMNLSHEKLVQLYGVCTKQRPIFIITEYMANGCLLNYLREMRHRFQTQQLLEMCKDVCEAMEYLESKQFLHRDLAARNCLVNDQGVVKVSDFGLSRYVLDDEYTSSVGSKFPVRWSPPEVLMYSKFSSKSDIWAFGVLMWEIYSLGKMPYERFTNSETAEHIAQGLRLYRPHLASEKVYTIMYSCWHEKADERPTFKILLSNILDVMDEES

Compound: C#CC(=O)N1CC2CC1C(n1nc(-c3ccc(C(=O)Nc4ccccc4)cc3)c3c(N)ncnc31)C2 (centres unmarked) [Ex. 17, 4-(4-amino-1-(2-propioloyl-2-azabicyclo[2.2.1]heptan-6-yl)-1H-pyrazolo[3,4-d]pyrimidin-3-yl)-N-phenylbenzamide]
IC50 (ITK): > 1000 nM
Selectivity (based on IC50) (ITK): >212.8
IC50 (BTK): 4.7 nM

Compound: C=CC(=O)N1CC2CC1C(n1nc(-c3ccc(S(=O)(=O)c4ccccc4)cc3)c3c(N)ncnc31)C2 (centres unmarked) [Ex. 32, 1-(6-(4-amino-3-(4-(phenylsulfonyl)phenyl)-1H-pyrazolo[3,4-d]pyrimidin-1-yl)-2-azabicyclo[2.2.1]heptan-2-yl)prop-2-en-1-one]
IC50 (ITK): > 1000 nM
Selectivity (based on IC50) (ITK): >250
IC50 (BTK): 4 nM

Compound: C=CC(=O)N1CC2CC1C(n1nc(-c3ccc(Sc4ccccc4)cc3)c3c(N)ncnc31)C2 (centres unmarked) [Ex. 33, 1-(6-(4-amino-3-(4-(phenylthio)phenyl)-1H-pyrazolo[3,4-d]pyrimidin-1-yl)-2-azabicyclo[2.2.1]heptan-2-yl)prop-2-en-1-one]
IC50 (ITK): > 1000 nM
Selectivity (based on IC50) (ITK): >303.0
IC50 (BTK): 3.3 nM

Compound: C=CC(=O)N1CC2CC1C(n1nc(-c3ccc(Oc4cccc(F)c4)cc3)c3c(N)ncnc31)C2 (centres unmarked) [Ex. 34, 1-(6-(4-amino-3-(4-(3-fluorophenoxy)phenyl)-1H-pyrazolo[3,4-d]pyrimidin-1-yl)-2-azabicyclo[2.2.1]heptan-2-yl)prop-2-en-1-one]
IC50 (ITK): 308 nM
Selectivity (based on IC50) (ITK): 69.9
IC50 (BTK): 4.4 nM

Compound: C=CC(=O)N1CC2CC1C(n1nc(-c3ccc(Oc4cccc(OC)c4)cc3)c3c(N)ncnc31)C2 (centres unmarked) [Ex. 41, 1-(6-(4-amino-3-(4-(3-methoxyphenoxy)phenyl)-1H-pyrazolo[3,4-d]pyrimidin-1-yl)-2-azabicyclo[2.2.1]heptan-2-yl)prop-2-en-1-one]
IC50 (ITK): > 1000 nM
Selectivity (based on IC50) (ITK): >222.2
IC50 (BTK): 4.5 nM

Compound: C=CC(=O)N1CC2CC1C(n1nc(-c3ccc(Oc4cccc(N(C)C)c4)cc3)c3c(N)ncnc31)C2 (centres unmarked) [Ex. 42, 1-(6-(4-amino-3-(4-(3-(dimethylamino)phenoxy)phenyl)-1H-pyrazolo[3,4-d]pyrimidin-1-yl)-2-azabicyclo[2.2.1]heptan-2-yl)prop-2-en-1-one]
IC50 (ITK): > 500 nM
Selectivity (based on IC50) (ITK): >147
IC50 (BTK): 3.4 nM

Compound: C=CC(=O)N1CC2CC1C(n1nc(-c3ccc(C(=O)Nc4cccc(Cl)c4)cc3)c3c(N)ncnc31)C2 (centres unmarked) [Ex. 48, 4-(1-(2-acryloyl-2-azabicyclo[2.2.1]heptan-6-yl)-4-amino-1H-pyrazolo[3,4-d]pyrimidin-3-yl)-N-(3-chlorophenyl)benzamide]
IC50 (ITK): 401 nM
Selectivity (based on IC50) (ITK): 85.3
IC50 (BTK): 4.7 nM

Compound: C=CC(=O)N1CC2CC1C(n1nc(-c3ccc(C(=O)Nc4ccccn4)cc3)c3c(N)ncnc31)C2 (centres unmarked) [Ex. 49, 4-(1-(2-acryloyl-2-azabicyclo[2.2.1]heptan-6-yl)-4-amino-1H-pyrazolo[3,4-d]pyrimidin-3-yl)-N-(pyridin-2-yl)benzamide]
IC50 (ITK): > 500 nM
Selectivity (based on IC50) (ITK): >142.9
IC50 (BTK): 3.5 nM

Compound: C=CC(=O)N1CC2CC1C(n1nc(-c3ccc(C(=O)Nc4cccc(C(F)(F)F)n4)cc3)c3c(N)ncnc31)C2 (centres unmarked) [Ex. 70, 4-(1-(2-acryloyl-2-azabicyclo[2.2.1]heptan-6-yl)-4-amino-1H-pyrazolo[3,4-d]pyrimidin-3-yl)-N-(6-(trifluoromethyl)pyridin-2-yl)benzamide]
IC50 (BTK): 6.3 nM

Compound: N#CCC(=O)N1C[C@@H]2C[C@@H]1[C@@H](n1nc(-c3ccc(C(=O)Nc4ccccn4)cc3)c3c(N)ncnc31)C2 [Ex. 74, 4-(4-amino-1-((1R,4R,6S)-2-(2-cyanoacetyl)-2-azabicyclo[2.2.1]heptan-6-yl)-1H-pyrazolo[3,4-d]pyrimidin-3-yl)-N-(pyridin-2-yl)benzamide]
IC50 (BTK): 123 nM

Compound: CC(C)C=C(C#N)C(=O)N1C[C@H]2CC(n3nc(-c4ccc(C(=O)Nc5ccccn5)cc4)c4c(N)ncnc43)[C@H]1C2 (stereo partly drawn) [Ex. 76, 4-(4-amino-1-((1R,4R)-2-(2-cyano-4-methylpent-2-enoyl)-2-azabicyclo[2.2.1]heptan-6-yl)-1H-pyrazolo[3,4-d]pyrimidin-3-yl)-N-(pyridin-2-yl)benzamide]
IC50 (BTK): 10 nM

Compound: C=CC(=O)N1C[C@@H]2C[C@H]1[C@@H](n1nc(-c3ccc(C(=O)Nc4ncccc4C)cc3)c3c(N)ncnc31)C2 [Ex. 77, 4-(1-((1S,4R,6S)-2-acryloyl-2-azabicyclo[2.2.1]heptan-6-yl)-4-amino-1H-pyrazolo[3,4-d]pyrimidin-3-yl)-N-(3-methylpyridin-2-yl)benzamide]
IC50 (BTK): 6.4 nM

Compound: C=CC(=O)N1C[C@@H]2C[C@H]1[C@@H](n1nc(-c3ccc(C(=O)Nc4ncccc4C(F)(F)F)cc3)c3c(N)ncnc31)C2 [Ex. 78, 4-(1-((1S,4R,6S)-2-acryloyl-2-azabicyclo[2.2.1]heptan-6-yl)-4-amino-1H-pyrazolo[3,4-d]pyrimidin-3-yl)-N-(3-(trifluoromethyl)pyridin-2-yl)benzamide]
IC50 (BTK): 5.2 nM

Compound: C=CC(=O)N1C[C@@H]2C[C@H]1[C@@H](n1nc(-c3ccc(C(=O)NC)cc3F)c3c(N)ncnc31)C2 [Ex. 79, 4-(1-((1S,4R,6S)-2-acryloyl-2-azabicyclo[2.2.1]heptan-6-yl)-4-amino-1H-pyrazolo[3,4-d]pyrimidin-3-yl)-3-fluoro-N-methylbenzamide]
IC50 (BTK): 77.1 nM

Compound: C=C(C)C(=O)N1C[C@@H]2C[C@@H]1[C@@H](n1nc(-c3ccc(C(=O)Nc4ccccn4)cc3)c3c(N)ncnc31)C2 [Ex. 84, 4-(4-amino-1-((1R,4R,6S)-2-methacryloyl-2-azabicyclo[2.2.1]heptan-6-yl)-1H-pyrazolo[3,4-d]pyrimidin-3-yl)-N-(pyridin-2-yl)benzamide]
IC50 (BTK): > 100 nM

More lines, now with the values ahead:

IC50 (ITK): 189 nM
Selectivity (based on IC50) (ITK): 89.9
IC50 (BTK): 2.1 nM
Compound: C=CC(=O)N1CC2CC1C(n1nc(-c3ccc(Oc4ccccc4)cc3)c3c(N)ncnc31)C2 (centres unmarked) [Ex. 1, 1-(6-(4-amino-3-(4-phenoxyphenyl)-1H-pyrazolo[3,4-d]pyrimidin-1-yl)-2-azabicyclo[2.2.1]heptan-2-yl)prop-2-en-1-one]

IC50 (ITK): 26.3 nM
Selectivity (based on IC50) (ITK): 32.9
IC50 (BTK): 0.8 nM
Compound: C#CC(=O)N1CC2CC1C(n1nc(-c3ccc(Oc4ccccc4)cc3)c3c(N)ncnc31)C2 (centres unmarked) [Ex. 2, 1-(6-(4-amino-3-(4-phenoxyphenyl)-1H-pyrazolo[3,4-d]pyrimidin-1-yl)-2-azabicyclo[2.2.1]heptan-2-yl)prop-2-yn-1-one]

IC50 (ITK): 104 nM
Selectivity (based on IC50) (ITK): 37.1
IC50 (BTK): 2.8 nM
Compound: C#CC(=O)N1CC2CC1C(n1nc(-c3ccc(C(=O)Nc4ccccn4)cc3)c3c(N)ncnc31)C2 (centres unmarked) [Ex. 4, 4-(4-amino-1-(2-propioloyl-2-azabicyclo[2.2.1]heptan-6-yl)-1H-pyrazolo[3,4-d]pyrimidin-3-yl)-N-(pyridin-2-yl)benzamide]

IC50 (ITK): > 1000 nM
Selectivity (based on IC50) (ITK): >303.3
IC50 (BTK): 3.3 nM
Compound: C=CC(=O)N1CC2CC1CC2n1nc(-c2ccc(Oc3ccccc3)cc2)c2c(N)ncnc21 (centres unmarked) [Ex. 12, 1-(5-(4-amino-3-(4-phenoxyphenyl)-1H-pyrazolo[3,4-d]pyrimidin-1-yl)-2-azabicyclo[2.2.1]heptan-2-yl)prop-2-en-1-one]

IC50 (ITK): > 1000 nM
Selectivity (based on IC50) (ITK): >384.6
IC50 (BTK): 2.6 nM
Compound: C=CC(=O)N1C[C@@H]2C[C@H]1C[C@H]2n1nc(-c2ccc(Oc3ccccc3)cc2)c2c(N)ncnc21 [Ex. 14, 1-((1S,4S,5R)-5-(4-amino-3-(4-phenoxyphenyl)-1H-pyrazolo[3,4-d]pyrimidin-1-yl)-2-azabicyclo[2.2.1]heptan-2-yl)prop-2-en-1-one]

IC50 (ITK): 123 nM
Selectivity (based on IC50) (ITK): 58.3
IC50 (BTK): 2.1 nM
Compound: C#CC(=O)N1CC2CC1C(n1nc(-c3cccc(Oc4ccccc4)c3)c3c(N)ncnc31)C2 (centres unmarked) [Ex. 15, 1-(6-(4-amino-3-(3-phenoxyphenyl)-1H-pyrazolo[3,4-d]pyrimidin-1-yl)-2-azabicyclo[2.2.1]heptan-2-yl)prop-2-yn-1-one]

IC50 (ITK): 132 nM
Selectivity (based on IC50) (ITK): 60.0
IC50 (BTK): 2.2 nM
Compound: C=CC(=O)N1CC2CC1C(n1nc(-c3ccc(Oc4ccccc4)cc3F)c3c(N)ncnc31)C2 (centres unmarked) [Ex. 35, 1-(6-(4-amino-3-(2-fluoro-4-phenoxyphenyl)-1H-pyrazolo[3,4-d]pyrimidin-1-yl)-2-azabicyclo[2.2.1]heptan-2-yl)prop-2-en-1-one]

IC50 (ITK): 268 nM
Selectivity (based on IC50) (ITK): 86.4
IC50 (BTK): 3.1 nM
Compound: C=CC(=O)N1CC2CC1C(n1nc(-c3ccc(Oc4cccc(C(F)(F)F)c4)cc3)c3c(N)ncnc31)C2 (centres unmarked) [Ex. 43, 1-(6-(4-amino-3-(4-(3-(trifluoromethyl)phenoxy)phenyl)-1H-pyrazolo[3,4-d]pyrimidin-1-yl)-2-azabicyclo[2.2.1]heptan-2-yl)prop-2-en-1-one]

IC50 (BTK): 1.1 nM
Compound: C=CC(=O)N1C[C@@H]2C[C@H]1[C@@H](n1nc(-c3ccc(C(=O)Nc4cc(F)ccn4)cc3F)c3c(N)ncnc31)C2 [Ex. 73, 4-(1-((1S,4R,6S)-2-acryloyl-2-azabicyclo[2.2.1]heptan-6-yl)-4-amino-1H-pyrazolo[3,4-d]pyrimidin-3-yl)-3-fluoro-N-(4-fluoropyridin-2-yl)benzamide]
